In series [1] the test system is NPM1 and GAPDH acetylation in KB cells. In words: NPM1 and GAPDH acetylation in KB cells (anti-acetyl lysine immunoprecipitation, western blotting). Format: cell-based. The procedure:
(§1) KB cells were maintained in Dullbecco's modified Eagle medium (DMEM) with 10% fetal bovine serum (FBS) at 37° C. with a 5% CO2 atmosphere in a humidified incubator. For IFNγ and GSNO treatment, KB cells were incubated in the presence of IFNγ 10 ng ml^−1 for an additional 16 h and 24 h respectively. Immunofluorescent staining of cells for confocal microscopy was carried out as described previously^30. CTK7A treatment was done for 24 h followed by acid extraction of histone and immunoblotting as per standard protocol^31.
Whole cell extract were prepared using RIPA buffer as mentioned above. The pre-blocked protein-G sepharose-bound antibody (4 μg) was incubated with 500 μg whole cell lysate overnight at 4° C. After extensive washes, bead-bound protein were analysed by western blotting with indicated antibodies. For HDAC inhibitors treatment, 5 mM sodium butyrate, 5 mM nicotiamide and 100 ng ml^−1 TSA were added 10 h before cells were harvest^36.

Another series is described as follows: Solubility test in water. Format: physicochemical. The method, then:
To a solution of curcumin in methanol (10 mg, 0.027 Mmol) […]. After incubation for 24 h, the solvent was evaporated in vacuum. The residue […] was purified with repeated recrystallization and filtration method using TLC (CHCl3/MeOH=4:1; Rf=0.5). This gave CTK7 as a dark orange powder (7.18 mg, 55%) which was analyzed by H^1 NMR, Melting point test, Solubility test and ESI-MS.
To a solution of CTK7 in methanol (50 mg, 0.1031 mmol), (10 ml) of Sodium ethoxide was added ([…], 0.1175 mmol) and the reaction mixture was stirred at room temperature for 90 minutes. The solvent was evaporated in vacuum and the residue was washed with hexane, diethyl ether and ethyl acetate. Product was confirmed through H^1 NMR, Solubility test, melting point.

For series [2], the system named is NPM1 and GAPDH expression in KB cells. Kind of series: NPM1 and GAPDH expression in treated KB cells. Format: cell-based. Conditions: 24 h. The procedure:
as §1, with “protocol^31. For whole cell extract preparation RIPA buffer (Tris-HCl 50 mM, pH 7.4 NP-40 1%, Na-deoxycholate 0.25%, NaCl 150 mM, EDTA 1 mM, Phenylmethylsulfonyl fluoride (PMSF), 1 mM Na3VO4, 1 mM NaF and protease inhibitor cocktail) was used.” for “protocol^31.”

Series [3] has as its system Histone H3K14 acetylation in KB cells. In words: H3K14 acetylation in GSNO treated KB cells (western blotting). In kind it is cell-based. Conditions: concentration dependent. The procedure:
as §1, with “protocol^31. For whole cell extract preparation RIPA buffer (Tris-HCl 50 mM, pH 7.4 NP-40 1%, Na-deoxycholate 0.25%, NaCl 150 mM, EDTA 1 mM, Phenylmethylsulfonyl fluoride (PMSF), 1 mM Na3VO4, 1 mM NaF and protease inhibitor cocktail) was used.” for “protocol^31.”
(In general: In western blotting, separated proteins are transferred to a membrane and probed.)

The next series concerns human melanocytes. The following applies: earlier report, cited from earlier work.
The next series deals with T1, PCAF (Homo sapiens, UniProt Q92831).
T1 construct: Recombinant baculovirus expressing full-length FLAG-tagged CARM1,CBP and PCAF; FLAG; made in house; host or cells: baculovirus-infected Sf21 cells
In words: HAT assay with recombinant PCAF. Format: biochemical. The method, then:
(§2) Recombinant baculovirus expressing full-length FLAG-tagged CARM1,CBP and PCAF were purified by immunoaffinity chromatography using M2-agarose beads followed by elution with FLAG peptide. Baculovirus-expressed full-length hexahistidine-tagged p300, and G9a were purified using Ni-NTA affinity chromatography as described previously^30.
(§3) HAT gel fluorography/autoradiography assays were performed as previously reported^30. Kinetic analysis of p300 HAT inhibition was performed as reported earlier^31 in the presence of (0, 30 and 50 μM) CTK7A. The obtained values were plotted as a lineweaver burk plot using Graphpad Prism software. For p300 Autoacetylation assay, reactions of p300 full length (80 ng) were carried out in HAT assay buffer at 30° C. for 10 minutes with or without the protein (NPM1) followed by addition of 1 μl of 4.7 Ci/mmol [^3H] acetyl CoA (NEN-PerkinElmer) and were further incubated for another 10 min in a 30 μl reaction. GAPDH was used as positive control. The radio-labeled acetylated p300 were processed by fluorography followed by autoradiography.

Another series deals with p300 (Homo sapiens, UniProt Q09472). In words: HAT assay with recombinant p300. In kind it is biochemical. Also noted: hexahistidine; made in house; host or cells: baculovirus-infected Sf21 cells. The procedure: as §2, §3
The target in the next series is T2, full length p300 (Homo sapiens, UniProt Q09472).
T2 construct: hexahistidine; made in house; host or cells: baculovirus-infected Sf21 cells
In words: p300 autoacetylation assay in vitro (3H-acetyl CoA, fluorography/autoradiography). Format: biochemical. The following applies: dose dependent; 3H-acetyl-CoA. The method, then:
as §3

The subject of series [4] is GAPDH localisation in KB cells. In words: GAPDH nuclear translocation in KB cells (immunofluorescence). Format: cell-based. Conditions: 10 ng ml−1, 16 h. The procedure: as §1, with “protocol^31. For whole cell extract preparation RIPA buffer (Tris-HCl 50 mM, pH 7.4 NP-40 1%, Na-deoxycholate 0.25%, NaCl 150 mM, EDTA 1 mM, Phenylmethylsulfonyl fluoride (PMSF), 1 mM Na3VO4, 1 mM NaF and protease inhibitor cocktail) was used.” for “protocol^31.”

Sequence of p300 (Q09472 whole entry, species assumed): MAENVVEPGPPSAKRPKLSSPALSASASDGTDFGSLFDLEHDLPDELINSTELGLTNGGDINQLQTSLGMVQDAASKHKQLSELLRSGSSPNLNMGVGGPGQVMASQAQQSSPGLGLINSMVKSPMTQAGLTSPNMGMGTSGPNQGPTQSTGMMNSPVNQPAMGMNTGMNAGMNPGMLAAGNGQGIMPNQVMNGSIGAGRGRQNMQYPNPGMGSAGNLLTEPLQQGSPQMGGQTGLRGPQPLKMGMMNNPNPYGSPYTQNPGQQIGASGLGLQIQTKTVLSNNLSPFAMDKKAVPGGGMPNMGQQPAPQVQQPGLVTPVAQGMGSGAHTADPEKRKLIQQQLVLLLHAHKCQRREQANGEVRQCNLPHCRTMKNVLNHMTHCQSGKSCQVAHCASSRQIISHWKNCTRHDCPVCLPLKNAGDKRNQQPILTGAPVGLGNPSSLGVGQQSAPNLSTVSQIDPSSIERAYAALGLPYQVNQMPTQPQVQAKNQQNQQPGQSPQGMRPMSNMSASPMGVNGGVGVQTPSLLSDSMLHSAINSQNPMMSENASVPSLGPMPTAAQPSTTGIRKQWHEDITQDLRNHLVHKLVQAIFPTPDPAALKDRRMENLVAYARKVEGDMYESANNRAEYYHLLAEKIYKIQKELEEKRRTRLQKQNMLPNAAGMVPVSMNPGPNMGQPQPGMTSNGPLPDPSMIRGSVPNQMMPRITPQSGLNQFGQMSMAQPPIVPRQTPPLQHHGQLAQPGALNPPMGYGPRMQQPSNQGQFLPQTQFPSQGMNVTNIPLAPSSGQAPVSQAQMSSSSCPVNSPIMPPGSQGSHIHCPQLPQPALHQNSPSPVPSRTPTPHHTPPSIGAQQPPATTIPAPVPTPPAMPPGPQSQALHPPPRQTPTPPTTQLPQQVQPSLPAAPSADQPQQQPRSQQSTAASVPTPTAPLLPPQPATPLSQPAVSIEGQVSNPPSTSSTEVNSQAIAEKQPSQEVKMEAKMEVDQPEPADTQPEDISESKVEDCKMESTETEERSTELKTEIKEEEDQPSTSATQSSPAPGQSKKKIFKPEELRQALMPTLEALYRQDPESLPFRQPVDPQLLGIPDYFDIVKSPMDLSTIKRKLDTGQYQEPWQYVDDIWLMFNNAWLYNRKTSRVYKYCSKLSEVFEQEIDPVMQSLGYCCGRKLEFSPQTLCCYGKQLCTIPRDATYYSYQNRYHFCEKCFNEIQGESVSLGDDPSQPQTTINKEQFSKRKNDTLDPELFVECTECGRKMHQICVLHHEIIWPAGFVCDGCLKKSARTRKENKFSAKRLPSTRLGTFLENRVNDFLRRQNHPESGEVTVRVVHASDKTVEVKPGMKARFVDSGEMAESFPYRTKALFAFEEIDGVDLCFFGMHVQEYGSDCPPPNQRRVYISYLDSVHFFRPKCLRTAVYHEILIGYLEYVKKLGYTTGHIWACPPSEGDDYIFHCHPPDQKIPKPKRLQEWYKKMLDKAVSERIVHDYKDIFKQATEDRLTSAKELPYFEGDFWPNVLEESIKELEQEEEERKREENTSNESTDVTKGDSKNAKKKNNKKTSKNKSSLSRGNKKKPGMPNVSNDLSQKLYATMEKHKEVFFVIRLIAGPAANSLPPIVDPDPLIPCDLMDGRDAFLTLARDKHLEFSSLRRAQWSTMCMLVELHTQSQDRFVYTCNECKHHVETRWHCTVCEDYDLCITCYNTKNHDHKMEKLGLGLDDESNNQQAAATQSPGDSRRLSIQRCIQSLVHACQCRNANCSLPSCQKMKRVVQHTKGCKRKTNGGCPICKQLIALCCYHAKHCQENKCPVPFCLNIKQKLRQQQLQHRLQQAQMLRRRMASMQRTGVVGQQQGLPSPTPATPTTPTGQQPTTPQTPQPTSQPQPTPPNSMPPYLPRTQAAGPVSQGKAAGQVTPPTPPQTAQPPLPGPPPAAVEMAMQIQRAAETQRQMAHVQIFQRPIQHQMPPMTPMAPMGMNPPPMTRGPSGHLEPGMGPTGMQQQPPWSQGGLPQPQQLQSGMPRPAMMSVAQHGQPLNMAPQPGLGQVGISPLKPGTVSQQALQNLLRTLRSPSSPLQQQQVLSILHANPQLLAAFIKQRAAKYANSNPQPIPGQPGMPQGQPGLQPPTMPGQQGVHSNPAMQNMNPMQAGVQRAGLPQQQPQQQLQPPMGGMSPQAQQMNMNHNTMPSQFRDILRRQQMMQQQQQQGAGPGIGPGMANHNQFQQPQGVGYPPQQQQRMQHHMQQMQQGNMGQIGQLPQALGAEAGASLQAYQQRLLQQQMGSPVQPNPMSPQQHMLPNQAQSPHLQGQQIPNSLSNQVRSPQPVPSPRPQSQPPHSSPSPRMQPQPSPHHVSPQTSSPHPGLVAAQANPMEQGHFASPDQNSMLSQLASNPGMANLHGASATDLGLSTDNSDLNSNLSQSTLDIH
T2 sequence (Q09472 whole entry, species assumed): as above
T1 sequence (Q92831 whole entry, species assumed): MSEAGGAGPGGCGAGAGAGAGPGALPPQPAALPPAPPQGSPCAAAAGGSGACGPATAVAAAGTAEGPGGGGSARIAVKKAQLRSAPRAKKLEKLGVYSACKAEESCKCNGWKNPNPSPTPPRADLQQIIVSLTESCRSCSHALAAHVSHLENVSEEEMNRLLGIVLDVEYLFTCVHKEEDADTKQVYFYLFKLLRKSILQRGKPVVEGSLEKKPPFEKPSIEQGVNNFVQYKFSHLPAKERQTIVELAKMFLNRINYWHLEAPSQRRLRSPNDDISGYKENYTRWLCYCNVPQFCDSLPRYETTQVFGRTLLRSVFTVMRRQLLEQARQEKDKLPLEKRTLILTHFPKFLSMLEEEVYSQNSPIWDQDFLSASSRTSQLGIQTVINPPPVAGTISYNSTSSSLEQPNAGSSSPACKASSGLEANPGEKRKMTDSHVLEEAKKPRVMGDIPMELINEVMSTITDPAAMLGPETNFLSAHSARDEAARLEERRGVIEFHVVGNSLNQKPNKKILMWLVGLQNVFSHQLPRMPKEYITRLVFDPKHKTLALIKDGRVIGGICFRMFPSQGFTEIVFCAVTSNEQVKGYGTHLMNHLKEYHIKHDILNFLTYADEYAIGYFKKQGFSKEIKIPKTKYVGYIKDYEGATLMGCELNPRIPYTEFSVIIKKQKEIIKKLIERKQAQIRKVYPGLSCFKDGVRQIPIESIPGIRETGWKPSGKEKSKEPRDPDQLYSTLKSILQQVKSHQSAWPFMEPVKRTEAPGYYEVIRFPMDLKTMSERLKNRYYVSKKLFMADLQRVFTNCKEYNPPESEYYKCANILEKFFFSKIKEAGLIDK

As for `CC(=N)NCc1cccc(CN)c1` [1400 W, N-(3-(Aminomethyl)benzyl)acetamidine], the “effect on IFNγ-enhanced GAPDH and NPM1 acetylation” value in series [1] (100 μM) was “abolished or reduced”.

Regarding `COc1cc(C=Cc2cc(C=Cc3ccc(O)c(OC)c3)n(-c3ccc(C(=O)O)cc3)n2)ccc1O` [CTK7, Hydrazinobenzoylcurcumin], the solubility in water result in “Solubility test in water” is “Insoluble”.

As to `N[C@@H](CCC(=O)N[C@@H](CSN=O)C(=O)NCC(=O)O)C(=O)O` [GSNO, S-nitroso-glutathione], in series [2], the “expression of GAPDH” value was “enhanced in a concentration dependent manner” and the “expression of NPM1” value was “enhanced in a concentration dependent manner”. In addition, in series [1] (200 μM GSNO, 24 h), the “acetylation of GAPDH” value is recorded as “gets acetylated” and the “acetylation of NPM1” value is recorded as “dramatically enhanced”. Also, in [3], the “level of H3K14 acetylation” value is recorded as “enhanced”.

For the molecule `CC(C)(COP(=O)(O)OP(=O)(O)OC[C@H]1O[C@@H](n2cnc3c(N)ncnc32)[C@H](O)[C@@H]1OP(=O)(O)O)[C@@H](O)C(=O)NCCC(=O)NCCSC(=O)[C@@H](N)CCCCN` [Lysyl-CoA, lysyl-CoA], in the series on human melanocytes, the “proliferation of human melanocytes” value is on record as “inhibited”. Moreover, in the series with human melanocytes (with expression SA-β-gal), the “senescence of human melanocytes” value is “induced senescence-like growth arrest”.

As for `COc1cc(/C=C/C(=O)CC(=O)/C=C/c2ccc(O)c(OC)c2)ccc1O` [curcumin, reference compound], the “inhibition of PCAF HAT activity” value on PCAF was “inhibitory effect”. At p300, the “inhibition of p300 HAT activity” value is listed as “inhibitory effect”.

As for “NPM1: Nucleophosmin, histone chaperone, multifunctional nucleolar protein”, the “activation of autoacetylation of p300” value with full length p300 is on record as “activate”.

B1: IFNγ: interferon γ, a proinflamatory cytokine that activates iNOS to produce NO (protein, UniProt P01579 24-161, looked up)
Interferon gamma: QDPYVKEAENLKKYFNAGHSDVADNGTLFLGILKNWKEESDRKIMQSQIVSFYFKLFKNFKDDQSIQKSVETIKEDMNVKFFNSNKKKRDDFEKLTNYSVTDLNVQRKAIHELIQVMAELSPAAKTGKRKRSQMLFRG
Consider B1, for which the “GAPDH and NPM1 acetylation” value in series [1] (IFNγ 10 ng ml−1, 16 h, NO-dependent) is reported as “enhanced”. Further, the “translocation of GAPDH to nucleus” value in series [4] is listed as “induce the translocation”.

(Values after patent US20120165384A1, “INHIBITION OF HISTONE ACETYLTRANSFERASES BY CTK7A AND METHODS THEREOF” (JAWAHARLAL NEHRU CENTRE FOR ADVANCED SCIENTIFIC RESEARCH, priority 2009, published 2012).)
